ChEMBL document CHEMBL1126341, “Synthesis of stereoisomers of 1,4:3,6-dianhydrohexitol nitrate derivative, KF-14124” (1992)

Legend:
Type in all cases: functional
Rattus norvegicus [1] = assay: Compound was tested for inhibition of T-wave elevation in lysine-Vasopressin -Induced-Angina Pectoris model in rats when administered intraperitoneally.; settings: for minimal effective dose: Rattus norvegicus, ip, read-out: MED
Rattus norvegicus [2] = assay: Compound was tested for inhibition of T-wave elevation in lysine-Vasopressin -Induced-Angina Pectoris model in rats when administered perorally; settings: po, read-out: MED
Canis familiaris [3] = species: Canis familiaris; assay: Minimum effective dose in propanol induced heart failure in left ventricular end diastolic pressure model of dog when dose given intradermally; settings: Canis lupus familiaris, Heart left ventricle; read-out: MED
Canis familiaris [4] = species: Canis familiaris; assay: Minimum effective dose in […] induced heart failure in left ventricular end diastolic pressure model of dog; settings: Canis lupus familiaris, Heart left ventricle; read-out: MED

Structure (SMILES)	minimal effective dose (Rattus norvegicus [1]) [mg/kg]	minimal effective dose (Rattus norvegicus [2]) [mg/kg]	also measured
O=[N+]([O-])O[C@@H]1CO[C@H]2[C@@H]1OC[C@H]2N1CCN(CCCSc2ccccc2)CC1	> 25	–	–
O=[N+]([O-])O[C@H]1CO[C@H]2[C@@H]1OC[C@H]2N1CCN(CCCSc2ccccc2)CC1	–	–	MED (Rattus norvegicus [1]): >25 mg/kg
O=[N+]([O-])O[C@@H]1CO[C@H]2[C@@H]1OC[C@@H]2N1CCN(CCCSc2ccccc2)CC1	> 25	> 30	–
O=[N+]([O-])O[C@H]1CO[C@@H]2C(N3CCN(CCCSc4ccccc4)CC3)CO[C@H]12 (single isomer, unassigned)	12.5	10	minimal effective dose (Canis familiaris [3]): 0.1 mg/kg
O=[N+]([O-])O[C@H]1CO[C@H]2[C@@H]1OC[C@H]2O[N+](=O)[O-] [ISOSORBIDE DINITRATE]	–	–	minimal effective dose (Canis familiaris [4]): > 0.3 mg/kg
